Our source for the Activity, IC50 and inhibition values is ChEMBL document CHEMBL6177967, “Semisynthesis and biological evaluation of 17-hydroxybrevianamide N derivatives as anti-inflammatory agents by mediating NF-κB and MAPK signaling pathways” (Eur J Med Chem, 2025).

Series [1] relates to RAW264.7. In words: Cytotoxicity against mouse RAW264.7 cells assessed as inhibition of cell growth at 2 uM incubated for 24 hrs by MTT assay. The series is classed as toxicity, cell-based. Conditions: raw264.7, 24 h. On the technique in general: Formazan colour is commonly taken as a measure of viable cells.
The test system of series [2] is RAW264.7. Briefly: Anti-inflammatory activity in LPS-induced mouse RAW264.7 cells assessed as inhibition of NO levels incubated for 24 hrs. The series is classed as functional, cell-based. Conditions: RAW264.7, 24 h.
For series [3], the system named is RAW264.7. Briefly: Anti-inflammatory activity in LPS-induced mouse RAW264.7 cells assessed as inhibition of TNF-alpha level at 2 uM incubated for 24 hrs by ELISA relative to control. The series is classed as functional. In general terms: An ELISA detects its analyte on a solid surface through an enzyme-linked reagent.
Series [4] relates to RAW264.7. In words: Anti-inflammatory activity in LPS-induced mouse RAW264.7 cells assessed as inhibition of IL-6 level at 2 uM incubated for 24 hrs by ELISA relative to control. The series is classed as functional.
Series [5] concerns RAW264.7. Briefly: Anti-inflammatory activity in LPS-induced mouse RAW264.7 cells assessed as inhibition of IL-1beta level at 2 uM incubated for 24 hrs by ELISA relative to control. The series is classed as functional.
Series [6] concerns RAW264.7. In words: Cytotoxicity against mouse RAW264.7 cells assessed as inhibition of cell growth at 10 uM incubated for 24 hrs by MTT assay. The series is classed as toxicity, cell-based. Conditions: raw264.7, 24 h.
Series [7] deals with RAW264.7. Briefly: Anti-inflammatory activity in LPS-induced mouse RAW264.7 cells assessed as inhibition of NO levels at 2 uM incubated for 24 hrs. The series is classed as functional, cell-based.
Series [8] relates to RAW264.7. Briefly: Cytotoxicity against mouse RAW264.7 cells assessed as inhibition of cell growth at 50 uM incubated for 24 hrs by MTT assay. The series is classed as toxicity, cell-based. Conditions: raw264.7, 24 h.

Active and inactive are the calls of the source. The calls are words filed in the database; no cut-off is given here. Bounds are passed on as bounds.

Consider `O=C1c2nc3ccccc3c(=O)n2[C@@H](Cc2ccccc2O)C(=O)N1Cc1ccccc1Cl`, for which the Activity entry in series [1] was “Non-toxic”. Moreover, the IC50 in series [2] amounted to 1780 nM. In addition, the inhibition result in series [3] and in series [5] was “inactive” in each case. Also, the inhibition at 2 µM in series [4] stood at 19.3%.
As to `CC(=O)Oc1ccccc1CC1C(=O)N(C)C(=O)c2nc3ccccc3c(=O)n21` (racemic), in series [6], the Activity entry is reported as “Non-toxic”.
`Cc1ccc(COc2ccccc2CC2C(=O)N(C)C(=O)c3nc4ccccc4c(=O)n32)cc1` (racemic): in series [6], the Activity result is listed as “Non-toxic”.
For `Cc1cccc(CN2C(=O)c3nc4ccccc4c(=O)n3C(Cc3ccccc3O)C2=O)c1` (racemic), the Activity entry in series [6] was “Non-toxic”. Further, the result in series [7] was Active.
For `O=C1c2nc3ccccc3c(=O)n2C(Cc2ccccc2O)C(=O)N1Cc1ccc(Cl)cc1` (racemic), the Activity entry in series [8] and in series [6] was “Non-toxic” throughout.
As for `O=C1c2nc3ccccc3c(=O)n2[C@H](Cc2ccccc2O)C(=O)N1Cc1cccc(F)c1`, the Activity entry in series [1] is recorded as “Non-toxic”. In addition, in series [2], the IC50 was 2250 nM. Also, the inhibition result in series [3] was “inactive”. Further, the inhibition at 2 µM turned out to be 22.9% in series [4] and 44% in series [5].
In the case of `COCC(=O)Oc1ccccc1CC1C(=O)N(C)C(=O)c2nc3ccccc3c(=O)n21` (racemic), the Activity result in series [6] was “Non-toxic”.
`CN1C(=O)c2nc3ccccc3c(=O)n2[C@H](Cc2ccccc2OCC#N)C1=O`: the Activity result in series [1] is recorded as “Non-toxic”. Further, the IC50 in series [2] is above 8000 nM. Also, the inhibition entry in series [3] was “inactive”. Moreover, the figures for the inhibition at 2 µM in series [4] and in series [5] were 31.9% and 63.1%, respectively.
Consider `CN1C(=O)c2nc3ccccc3c(=O)n2[C@@H](Cc2ccccc2OCc2ccccc2Cl)C1=O`, for which the Activity result in series [1] is recorded as “Non-toxic”. Also, in series [2], the IC50 stood at 1530 nM. The inhibition result in series [3] is “inactive”. Further, the values for the inhibition at 2 µM in series [4] and in series [5] were 21.4% and 82.1%, respectively.
`O=C1c2nc3ccccc3c(=O)n2C(Cc2ccccc2O)C(=O)N1Cc1cccc(Br)c1` (racemic): the Activity entry in series [6] is given as “Non-toxic”; in series [7] it was “Active; Strong Ability Of No Inhibition Observed”.
As for `COCOc1ccccc1CC1C(=O)N(Cc2cccc(C(F)(F)F)c2)C(=O)c2nc3ccccc3c(=O)n21` (racemic), the figures for the Activity result in series [8] and in series [6] were “Toxic” and “Non-toxic”, respectively.
Take `COc1ccc(C2(O)c3nc4ccccc4c(=O)n3C(Cc3ccccc3O)C(=O)N2C)cc1` (racemic): in series [6], the Activity entry was “Non-toxic”.
As for `CN1C(=O)c2nc3ccccc3c(=O)n2[C@H](Cc2ccccc2OCc2ccccc2Cl)C1=O`, the Activity entry in series [1] was “Non-toxic”. In series [2], the IC50 is above 8000 nM. In addition, the inhibition entry in series [3], in series [4] and in series [5] was “inactive” each time.
As to `CN1C(=O)c2nc3ccccc3c(=O)n2C(Cc2ccccc2OCc2ccccc2Cl)C1=O` (racemic), the Activity result is “Non-toxic” in series [6] and “Active; Strong Ability Of No Inhibition Observed” in series [7].
As for `CCOC(=O)COc1ccccc1CC1C(=O)N(C)C(=O)c2nc3ccccc3c(=O)n21` (racemic), the Activity entry in series [6] is listed as “Non-toxic”.
Same read-out and setting: the value for `COc1ccccc1CC1C(=O)N(C)C(=O)c2nc3ccccc3c(=O)n21` (racemic) was “Non-toxic”.
With `CN1C(=O)c2nc3ccccc3c(=O)n2C(Cc2ccccc2OCc2ccc(Cl)cc2)C1=O` (racemic), in series [6], the Activity entry is recorded as “Non-toxic”. In addition, in series [7], the result was Active.
Turning to `CN1C(=O)c2nc3ccccc3c(=O)n2C(Cc2ccccc2OC(=O)c2cccs2)C1=O` (racemic), the Activity entry in series [6] is given as “Non-toxic”.
In the case of `O=C1c2nc3ccccc3c(=O)n2[C@@H](Cc2ccccc2O)C(=O)N1Cc1cccc(F)c1`, the Activity result in series [1] is “Non-toxic”. For the same compound, in series [2], the IC50 came to 3070 nM. Besides, the inhibition result in series [3] was “inactive”. In addition, the inhibition at 2 µM in series [4] is 21.3%; in series [5], 60.7%.
The corresponding values for `O=C1c2nc3ccccc3c(=O)n2[C@H](Cc2ccccc2O)C(=O)N1Cc1cccc(Br)c1` are “Non-toxic”, 1370 nM, “inactive”, 19.2% and 45.2%.
The corresponding values for `C=CCOc1ccccc1C[C@@H]1C(=O)N(C)C(=O)c2nc3ccccc3c(=O)n21` are “Non-toxic”, 1680 nM, “inactive”, 36.5% and 42.9%.
Turning to `O=C1c2nc3ccccc3c(=O)n2[C@H](Cc2ccccc2O)C(=O)N1Cc1ccccc1Cl`, in series [1], the Activity entry is “Non-toxic”. Besides, the IC50 in series [2] was found to be 1190 nM. Further, the inhibition entry in series [3] was “inactive”. Moreover, the inhibition at 2 µM in series [4] was determined as 28.8%; in series [5], 35.7%.
Take `O=C1c2nc3ccccc3c(=O)n2C(Cc2ccccc2O)C(=O)N1Cc1cccc(C(F)(F)F)c1` (racemic): the Activity result in series [6] is on record as “Non-toxic”.
Take `CN1C(=O)c2nc3ccccc3c(=O)n2[C@@H](Cc2ccccc2OCC#N)C1=O`: the Activity result in series [1] is listed as “Non-toxic”. Also, in series [2], the IC50 is 1610 nM. Besides, in series [3], the inhibition entry was “inactive”. The inhibition at 2 µM came to 31.6% in series [4] and 48.8% in series [5].
As for `O=C1c2nc3ccccc3c(=O)n2C(Cc2ccccc2O)C(=O)N1Cc1cccc(F)c1` (racemic), the Activity entry in series [6] is listed as “Non-toxic”; in series [7] it was “Active; Strong Ability Of No Inhibition Observed”.
`CN1C(=O)c2nc3ccccc3c(=O)n2C(Cc2ccccc2O)C1=O` (racemic): the Activity result in series [6] is “Non-toxic”.
On the same count and under the same terms, with `COCOc1ccccc1CC1C(=O)N(Cc2cccc(C)c2)C(=O)c2nc3ccccc3c(=O)n21` (racemic) the entry was “Non-toxic”.
`CN1C(=O)c2nc3ccccc3c(=O)n2C(Cc2ccccc2OC(=O)c2ccco2)C1=O` (racemic): the Activity result in series [6] is on record as “Non-toxic”.
The same measure, in the same setting: the value for `CN1C(=O)c2nc3ccccc3c(=O)n2C(Cc2ccccc2OC(=O)COCc2ccccc2)C1=O` (racemic) was “Non-toxic”.
For `O=C1c2nc3ccccc3c(=O)n2[C@@H](Cc2ccccc2O)C(=O)N1Cc1cccc(Br)c1`, the Activity result in series [1] is reported as “Non-toxic”. Moreover, the IC50 in series [2] was above 8000 nM. In addition, the inhibition entry in series [3], in series [4] and in series [5] was “inactive” in each case.
With `COc1ccccc1CC1C(=O)N(Cc2cccc(F)c2)C(=O)c2nc3ccccc3c(=O)n21` (racemic), in series [6], the Activity result was “Non-toxic”.
As to `O=C1NC(=O)C(Cc2ccccc2O)n2c1nc1ccccc1c2=O` (racemic), the Activity entry in series [6] was “Non-toxic”. For the same compound, the inhibition entry in series [3] is “inactive”. Besides, the inhibition at 2 µM in series [4] turned out to be 28.8%; in series [5], 33.3%.
Take `COCOc1ccccc1CC1C(=O)NC(=O)c2nc3ccccc3c(=O)n21` (racemic): the Activity result in series [6] is listed as “Non-toxic”.
Consider `CN1C(=O)c2nc3ccccc3c(=O)n2C(Cc2ccccc2OCc2cccc(C(F)(F)F)c2)C1=O` (racemic), for which the Activity result in series [6] is recorded as “Non-toxic”.
`COc1ccccc1CC1C(=O)N(Cc2cccc(C)c2)C(=O)c2nc3ccccc3c(=O)n21` (racemic): the Activity result in series [6] is “Non-toxic”.

The IC50 is the midpoint of a concentration-inhibition curve. Broadly, the inhibition is the share of the control response that was lost under treatment.
